Measurements: patent US10253011B1, “Lubiprostone crystals and methods for preparing the same” (CHIROGATE INTERNATIONAL INC., priority 2018, dated 2019)

Assays:
Type in all cases: physicochemical
[1] = Storage stability of Lubiprostone crystal V (crystalline form and degradation to impurity A); conditions: six months of storage at about −20° C.
[2] = Crystal form transformation of Lubiprostone crystal V stirred in isopropyl acetate/heptane, XRPD; conditions: stirred in isopropyl acetate (0.16 ml)/heptane (0.84 ml) at 20° C., within two hours
Description: X-ray Powder Diffraction (XRPD) Analysis: The XRPD patterns were collected on a Bruker D2 PHASER diffractometer with fixed divergence slits and 1D LYNXEYE detector. The samples (ca. 100 mg) were flatly placed on a sample holder. The prepared samples were analyzed over a 2θ range from 5° to 50° with step size of 0.02 degrees and step time of 1 second using CuKα radiation at a power of 10 mA and 30 kV. The CuKβ radiation was removed by a divergent beam nickel filter.
Lubiprostone crystal V (0.20 g, from Example 9) was added to a mixture of isopropyl acetate (0.16 ml) and heptane (0.84 ml)(i.e., the solvent system for crystallization of US 2010/056808), and the mixture was stirred at 20° C. for 2 hours. The resulting suspension was filtered and rinsed, and then dried under high vacuum at room temperature to give Lubiprostone crystal I. The XRPD results are shown in FIGS. 12(a) and 12(b).
Therefore, the Lubiprostone crystal V is a novel crystalline form of Lubiprostone, and the crystalline form shown in FIG. 2 found in the unit cell of Lubiprostone crystal II by optical microscope is an enantiomorph of Lubiprostone, rather than Lubiprostone crystal V.

[3] = Crystal form stability of Lubiprostone crystal V in the third solvent used for seeded crystallization

## CCCCC(F)(F)[C@@]1(O)CC[C@H]2[C@@H](CC(=O)[C@@H]2CCCCCCC(=O)O)O1 [Lubiprostone crystal V, Lubiprostone]
[1]
  stability on storage (other crystalline forms, degraded products of impurity A): good stability
[2]
  conversion of crystalline form to Lubiprostone crystal I (XRPD): completely converted
[3]; esters such as isopropyl acetate as third solvent
  conversion of crystalline form to Lubiprostone crystal I: rapidly converted
[3]; o-xylene, m-xylene, ethyl ether, isopropyl ether or methyl tert-butyl ether as third solvent
  stability of crystal form against conversion to Lubiprostone crystal I: very stable
